The source of these data is patent publication US12492173B2, “Herbicidal substituted N-tetrazolyl aryl carboxamides” (Bayer Aktiengesellschaft, priority 2019, dated 2025).

The structures appear in SMILES notation.

The first experiment has as its system Amaranthus retroflexus. Briefly: Post-emergence herbicidal action, AMARE. In kind it is in vivo. Also noted: key: % herbicidal action vs untreated; 100 = plants died, 0 = like control. The settings on record: Dosage 80 g/ha. An outline of the steps: (§1)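 Visual % damage versus untreated plants, scored about 3 weeks post-spray (100% = dead, 0% = like control). Greenhouse plants in sandy loam were treated at one-leaf stage with WP/EC formulations in water at 600 to 800 l/ha plus 0.2% wetting agent.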
`CCCn1nnnc1NC(=O)c1ccc(C(F)(F)F)c(CSC)c1OC` [Example 3-134]: the “herbicidal action AMARE” value was 100.

Consider `CCSCc1c(C(F)F)ccc(C(=O)Nc2nnnn2C)c1SCC` [Example 1-191], for which the “herbicidal action AMARE” value turned out to be 80.

Take `CCn1nnnc1NC(=O)c1ccc(C(F)(F)F)c(CS(C)(=O)=O)c1OC` [Example 2-136]: the “herbicidal action AMARE” value is recorded as 100.

As for `CCn1nnnc1NC(=O)c1ccc(C(F)(F)F)c(C[S+](C)[O-])c1OC` (stereo not shown) [Example 2-135], the “herbicidal action AMARE” value is on record as 100.

With `Cn1nnnc1NC(=O)c1ccc(Cl)c(CS(C)(=O)=O)c1Cl` [Example 1-561], the “herbicidal action AMARE” value was 100.

Staying with this experiment, now noted: comparative experiment, post-emergence, 5 g of a.i./ha.
With `CSCc1c(C(F)(F)F)ccc(C(=O)Nc2nnnn2C)c1Cl` [Example 1-296], the “Herbicidal action against AMARE” value stood at 60.

The same experiment, now with this note: post-emergence, dosage 80 g/ha.
`CSCc1c(C(F)(F)F)ccc(C(=O)Nc2nnnn2C)c1Br` [Example 1-380]: the “herbicidal action AMARE” value stood at 80%.

Regarding `CSCc1c(C(F)(F)F)ccc(C(=O)Nc2nnnn2C)c1Cl` [Example 1-296], the “herbicidal action AMARE” value was determined as 100%.

In the case of `CCn1nnnc1NC(=O)c1ccc(C(F)(F)F)c(C[S+](C)[O-])c1Br` (stereo not shown) [Example 2-381], the “herbicidal action AMARE” value turned out to be 90%.

For the next experiment, the system named is Echinochloa crus-galli. Briefly: Post-emergence herbicidal action, ECHCG. The settings on record: Dosage 80 g/ha. Details: key: % herbicidal action vs untreated; 100 = plants died, 0 = like control. The format is in vivo. An outline of the steps: as §1
For the compound `CCCn1nnnc1NC(=O)c1ccc(C(F)(F)F)c(CSC)c1OC` [Example 3-134], the “herbicidal action ECHCG” value is reported as 100.

On to `CCSCc1c(C(F)F)ccc(C(=O)Nc2nnnn2C)c1SCC` [Example 1-191], for which the “herbicidal action ECHCG” value came to 100.

Regarding `CCn1nnnc1NC(=O)c1ccc(C(F)(F)F)c(CS(C)(=O)=O)c1OC` [Example 2-136], the “herbicidal action ECHCG” value is 100.

`CCn1nnnc1NC(=O)c1ccc(C(F)(F)F)c(C[S+](C)[O-])c1OC` (stereo not shown) [Example 2-135]: the “herbicidal action ECHCG” value is recorded as 100.

As to `Cn1nnnc1NC(=O)c1ccc(Cl)c(CS(C)(=O)=O)c1Cl` [Example 1-561], the “herbicidal action ECHCG” value is listed as 100.

The same experiment, now with this note: post-emergence, dosage 80 g/ha.
As to `CSCc1c(C(F)(F)F)ccc(C(=O)Nc2nnnn2C)c1Br` [Example 1-380], the “herbicidal action ECHCG” value stood at 90%.

On to `CSCc1c(C(F)(F)F)ccc(C(=O)Nc2nnnn2C)c1Cl` [Example 1-296], for which the “herbicidal action ECHCG” value is on record as 100%.

In the case of `CCn1nnnc1NC(=O)c1ccc(C(F)(F)F)c(C[S+](C)[O-])c1Br` (stereo not shown) [Example 2-381], the “herbicidal action ECHCG” value is recorded as 90%.

The next experiment concerns Veronica persica. Briefly: Post-emergence herbicidal action, VERPE. The format is in vivo. The settings on record: Dosage 80 g/ha. Details: key: % herbicidal action vs untreated; 100 = plants died, 0 = like control. The procedure, abridged: as §1
As for `CCCn1nnnc1NC(=O)c1ccc(C(F)(F)F)c(CSC)c1OC` [Example 3-134], the “herbicidal action VERPE” value is 100.

Turning to `CCSCc1c(C(F)F)ccc(C(=O)Nc2nnnn2C)c1SCC` [Example 1-191], the “herbicidal action VERPE” value is 100.

On to `CCn1nnnc1NC(=O)c1ccc(C(F)(F)F)c(CS(C)(=O)=O)c1OC` [Example 2-136], for which the “herbicidal action VERPE” value is recorded as 100.

As for `CCn1nnnc1NC(=O)c1ccc(C(F)(F)F)c(C[S+](C)[O-])c1OC` (stereo not shown) [Example 2-135], the “herbicidal action VERPE” value is 100.

`Cn1nnnc1NC(=O)c1ccc(Cl)c(CS(C)(=O)=O)c1Cl` [Example 1-561]: the “herbicidal action VERPE” value is 100.

The experiment is the same for the next values; noted with them: post-emergence, dosage 80 g/ha.
Regarding `CSCc1c(C(F)(F)F)ccc(C(=O)Nc2nnnn2C)c1Br` [Example 1-380], the “herbicidal action VERPE” value is reported as 100%.

In the case of `CSCc1c(C(F)(F)F)ccc(C(=O)Nc2nnnn2C)c1Cl` [Example 1-296], the “herbicidal action VERPE” value is reported as 100%.

Take `CCn1nnnc1NC(=O)c1ccc(C(F)(F)F)c(C[S+](C)[O-])c1Br` (stereo not shown) [Example 2-381]: the “herbicidal action VERPE” value came out at 100%.

In another experiment the test system is Veronica persica. Briefly: Pre-emergence herbicidal action, VERPE. In kind it is in vivo. The settings on record: dosage 320 g/ha, scored visually after 3 weeks vs untreated controls (100% = plants have died). The procedure, abridged:
(§2)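 Application took place on the soil surface immediately after sowing into sandy loam, using aqueous WP or EC preparations with 0.2% wetting agent. Visual percent scoring followed 3 weeks later, untreated pots serving as reference.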
In the case of `CCCn1nnnc1NC(=O)c1ccc(C(F)(F)F)c(CSC)c1OC` [Example 3-134], the “herbicidal activity VERPE” value stood at 100%.

Turning to `CCSCc1c(C(F)F)ccc(C(=O)Nc2nnnn2C)c1SCC` [Example 1-191], the “herbicidal activity VERPE” value was 100%.

`CSCc1c(C(F)(F)F)ccc(C(=O)Nc2nnnn2C)c1Br` [Example 1-380]: the “herbicidal activity VERPE” value was 100%.

For `CSCc1c(C(F)(F)F)ccc(C(=O)Nc2nnnn2C)c1Cl` [Example 1-296], the “herbicidal activity VERPE” value is given as 100%.

For the compound `CCn1nnnc1NC(=O)c1ccc(C(F)(F)F)c(C[S+](C)[O-])c1Br` (stereo not shown) [Example 2-381], the “herbicidal activity VERPE” value worked out at 100%.

For `CCn1nnnc1NC(=O)c1ccc(C(F)(F)F)c(CS(C)(=O)=O)c1OC` [Example 2-136], the “herbicidal activity VERPE” value was determined as 100%.

`CCn1nnnc1NC(=O)c1ccc(C(F)(F)F)c(C[S+](C)[O-])c1OC` (stereo not shown) [Example 2-135]: the “herbicidal activity VERPE” value is on record as 100%.

With `Cn1nnnc1NC(=O)c1ccc(Cl)c(CS(C)(=O)=O)c1Cl` [Example 1-561], the “herbicidal activity VERPE” value stood at 90%.

In another experiment the test system is Echinochloa crus-galli. Briefly: Pre-emergence herbicidal action, ECHCG. The settings on record: dosage 320 g/ha, scored visually after 3 weeks vs untreated controls (100% = plants have died). In kind it is in vivo. The procedure, abridged: as §2
For the compound `CCCn1nnnc1NC(=O)c1ccc(C(F)(F)F)c(CSC)c1OC` [Example 3-134], the “herbicidal activity ECHCG” value was 100%.

Consider `CCSCc1c(C(F)F)ccc(C(=O)Nc2nnnn2C)c1SCC` [Example 1-191], for which the “herbicidal activity ECHCG” value came out at 100%.

With `CSCc1c(C(F)(F)F)ccc(C(=O)Nc2nnnn2C)c1Br` [Example 1-380], the “herbicidal activity ECHCG” value stood at 100%.

Turning to `CSCc1c(C(F)(F)F)ccc(C(=O)Nc2nnnn2C)c1Cl` [Example 1-296], the “herbicidal activity ECHCG” value is 100%.

For `CCn1nnnc1NC(=O)c1ccc(C(F)(F)F)c(C[S+](C)[O-])c1Br` (stereo not shown) [Example 2-381], the “herbicidal activity ECHCG” value worked out at 100%.

As to `CCn1nnnc1NC(=O)c1ccc(C(F)(F)F)c(CS(C)(=O)=O)c1OC` [Example 2-136], the “herbicidal activity ECHCG” value is reported as 100%.

`CCn1nnnc1NC(=O)c1ccc(C(F)(F)F)c(C[S+](C)[O-])c1OC` (stereo not shown) [Example 2-135]: the “herbicidal activity ECHCG” value is reported as 100%.

Turning to `Cn1nnnc1NC(=O)c1ccc(Cl)c(CS(C)(=O)=O)c1Cl` [Example 1-561], the “herbicidal activity ECHCG” value came out at 100%.

The next experiment deals with Abutilon theophrasti. Briefly: Post-emergence herbicidal action, ABUTH. The settings on record: Dosage 80 g/ha. Also noted: key: % herbicidal action vs untreated; 100 = plants died, 0 = like control. The format is in vivo. An outline of the steps: as §1
Regarding `CCCn1nnnc1NC(=O)c1ccc(C(F)(F)F)c(CSC)c1OC` [Example 3-134], the “herbicidal action ABUTH” value is 100.

In the case of `CCSCc1c(C(F)F)ccc(C(=O)Nc2nnnn2C)c1SCC` [Example 1-191], the “herbicidal action ABUTH” value came out at 100.

For the compound `CCn1nnnc1NC(=O)c1ccc(C(F)(F)F)c(CS(C)(=O)=O)c1OC` [Example 2-136], the “herbicidal action ABUTH” value stood at 100.

Take `CCn1nnnc1NC(=O)c1ccc(C(F)(F)F)c(C[S+](C)[O-])c1OC` (stereo not shown) [Example 2-135]: the “herbicidal action ABUTH” value turned out to be 100.

As to `Cn1nnnc1NC(=O)c1ccc(Cl)c(CS(C)(=O)=O)c1Cl` [Example 1-561], the “herbicidal action ABUTH” value turned out to be 90.

Staying with this experiment, now noted: post-emergence, dosage 80 g/ha.
As to `CSCc1c(C(F)(F)F)ccc(C(=O)Nc2nnnn2C)c1Br` [Example 1-380], the “herbicidal action ABUTH” value is recorded as 90%.

As for `CSCc1c(C(F)(F)F)ccc(C(=O)Nc2nnnn2C)c1Cl` [Example 1-296], the “herbicidal action ABUTH” value is recorded as 100%.

On to `CCn1nnnc1NC(=O)c1ccc(C(F)(F)F)c(C[S+](C)[O-])c1Br` (stereo not shown) [Example 2-381], for which the “herbicidal action ABUTH” value stood at 90%.
